The source of these data is ChEMBL document CHEMBL5370634, “Synthesis and Antifungal Evaluation of New Azole Derivatives against Candida albicans” (ACS Med Chem Lett, 2023).

Experiment [1] concerns Candida albicans. In words: Antifungal activity against Candida albicans SC5314FR assessed as fractional inhibitory concentration index incubated for 24 hrs in presence of fluconazole by microdilution method. Format: functional. Background: In broth dilution the organism is exposed to a series of concentrations in liquid medium.
Experiment [2] concerns Candida albicans. In words: Antifungal activity against Candida albicans SC5314 assessed as fractional inhibitory concentration index incubated for 24 hrs in presence of fluconazole by microdilution method. It counts as functional.
For experiment [3], the system named is Candida albicans. In words: Antifungal activity against Candida albicans SC5314 incubated for 24 hrs by microdilution method. It counts as functional.
The test system of experiment [4] is Candida albicans. Briefly: Antifungal activity against Candida albicans SC5314 incubated for 24 hrs in presence of fluconazole by microdilution method. Format: functional.
Experiment [5] relates to Candida albicans. In words: Antifungal activity against Candida albicans SC5314FR incubated for 24 hrs by microdilution method. Format: functional.
The test system of experiment [6] is Candida albicans. Briefly: Antifungal activity against Candida albicans SC5314FR incubated for 24 hrs in presence of fluconazole by microdilution method. Format: functional, SC5314.

≈ marks a conversion by molar mass, not a printed value.

As to `CC(=O)N1CCN(c2ccc(OCCN(Cc3ccc(Br)cc3)CC(O)(Cn3cncn3)c3ccc(F)cc3F)cc2)CC1` (stereo unspecified), the “fractional inhibitory concentration index (FICI)” value in the experiment on Candida albicans [1] is on record as 2; with Candida albicans [2], 1.58. Besides, the MIC50 was 5.71 µg/mL (≈ 8.53 µM) against Candida albicans [3], 2.17 µg/mL in the experiment on Candida albicans [4], greater than 200 µg/mL in the experiment with Candida albicans [5] and greater than 200 µg/mL with Candida albicans [6].
As to `CC(=O)N1CCN(c2ccc(OCCN(CC(O)(Cn3cncn3)c3ccc(F)cc3F)S(=O)(=O)c3ccc(Br)cc3)cc2)CC1` (stereo unspecified), the “fractional inhibitory concentration index (FICI)” value is listed as 2 in the experiment with Candida albicans [1] and 0.22 in the experiment with Candida albicans [2]. Moreover, the MIC50 in the experiment with Candida albicans [3] is 0.2 µg/mL (≈ 0.278 µM); in the experiment on Candida albicans [4], 0.04 µg/mL; against Candida albicans [5] it was greater than 200 µg/mL; with Candida albicans [6], greater than 200 µg/mL.
Turning to `CC(=O)N1CCN(c2ccc(OCCN(CC(O)(Cn3cncn3)c3ccc(F)cc3F)C(=O)c3c(Cl)cccc3Cl)cc2)CC1` (stereo unspecified), the “fractional inhibitory concentration index (FICI)” value with Candida albicans [1] worked out at 2; in the experiment with Candida albicans [2], 0.4. Moreover, the MIC50 against Candida albicans [3] was 6.25 µg/mL (≈ 9.28 µM); in the experiment on Candida albicans [4], 0.56 µg/mL; with Candida albicans [5], greater than 200 µg/mL; in the experiment on Candida albicans [6], greater than 200 µg/mL.
On to `CC(=O)N1CCN(c2ccc(OCCN(CC(O)(Cn3cncn3)c3ccc(F)cc3F)S(=O)(=O)c3ccc(F)cc3)cc2)CC1` (stereo unspecified), for which the “fractional inhibitory concentration index (FICI)” value was 2 in the experiment with Candida albicans [1] and 1.69 in the experiment on Candida albicans [2]. Moreover, the MIC50 in the experiment with Candida albicans [3] is 0.1 µg/mL (≈ 0.152 µM); in the experiment on Candida albicans [4] it was 0.16 µg/mL; in the experiment with Candida albicans [5], greater than 200 µg/mL; in the experiment on Candida albicans [6], greater than 200 µg/mL.
As for `C=CCN(CCOc1ccc(N2CCN(C(C)=O)CC2)cc1)CC(O)(Cn1cncn1)c1ccc(F)cc1F` (stereo unspecified), the “fractional inhibitory concentration index (FICI)” value in the experiment on Candida albicans [1] is given as 1.07; in the experiment with Candida albicans [2], 1.51. For the same molecule, the MIC50 was determined as 7.13 µg/mL (≈ 13.2 µM) with Candida albicans [3], 2.17 µg/mL in the experiment on Candida albicans [4], 115 µg/mL (≈ 213 µM) against Candida albicans [5] and 95.7 µg/mL with Candida albicans [6].
`COc1ccc(S(=O)(=O)N(CCOc2ccc(N3CCN(C(C)=O)CC3)cc2)CC(O)(Cn2cncn2)c2ccc(F)cc2F)cc1` (stereo unspecified): the figures for the “fractional inhibitory concentration index (FICI)” value in the experiment on Candida albicans [1] and with Candida albicans [2] were 2 and 0.5, respectively. Further, the MIC50 was 7.27 µg/mL (≈ 10.8 µM) in the experiment on Candida albicans [3], 0.72 µg/mL with Candida albicans [4], greater than 200 µg/mL against Candida albicans [5] and greater than 200 µg/mL in the experiment on Candida albicans [6].
Take `COc1ccc(C(=O)CN(CCOc2ccc(N3CCN(C(C)=O)CC3)cc2)CC(O)(Cn2cncn2)c2ccc(F)cc2F)cc1OC` (stereo unspecified): the results for the “fractional inhibitory concentration index (FICI)” value with Candida albicans [1] and with Candida albicans [2] were 2 and 0.71, respectively. Further, the MIC50 against Candida albicans [3] is 35 µg/mL (≈ 51.5 µM); in the experiment on Candida albicans [4], 1.22 µg/mL; in the experiment on Candida albicans [5] it was greater than 200 µg/mL; in the experiment on Candida albicans [6], greater than 200 µg/mL.
With `CC(=O)N1CCN(c2ccc(OCCN(Cc3ccc(C#N)cc3)CC(O)(Cn3cncn3)c3ccc(F)cc3F)cc2)CC1` (stereo unspecified), the “fractional inhibitory concentration index (FICI)” value with Candida albicans [1] was 2; in the experiment with Candida albicans [2], 1.08. Besides, the MIC50 was 0.99 µg/mL (≈ 1.61 µM) against Candida albicans [3], 0.68 µg/mL in the experiment with Candida albicans [4], greater than 200 µg/mL against Candida albicans [5] and greater than 200 µg/mL in the experiment on Candida albicans [6].
Take `CC(=O)N1CCN(c2ccc(OCCN(Cc3ccc([N+](=O)[O-])cc3)CC(O)(Cn3cncn3)c3ccc(F)cc3F)cc2)CC1` (stereo unspecified): the “fractional inhibitory concentration index (FICI)” value with Candida albicans [1] was found to be 2; with Candida albicans [2], 0.03. Also, the MIC50 is 0.08 µg/mL (≈ 0.126 µM) against Candida albicans [3], 0.002 µg/mL in the experiment on Candida albicans [4], greater than 200 µg/mL against Candida albicans [5] and greater than 200 µg/mL with Candida albicans [6].
For `CC(=O)N1CCN(c2ccc(OCCN(CC(O)(Cn3cncn3)c3ccc(F)cc3F)S(=O)(=O)CCCCl)cc2)CC1` (stereo unspecified), the figures for the “fractional inhibitory concentration index (FICI)” value with Candida albicans [1] and in the experiment on Candida albicans [2] were 2 and 0.33, respectively. In addition, the MIC50 against Candida albicans [3] was 0.66 µg/mL (≈ 1.03 µM); in the experiment with Candida albicans [4] it was 0.16 µg/mL; in the experiment with Candida albicans [5], greater than 200 µg/mL; with Candida albicans [6], greater than 200 µg/mL.
With `CC(=O)N1CCN(c2ccc(OCCN(CC(O)(Cn3cncn3)c3ccc(F)cc3F)C(=O)CCCl)cc2)CC1` (stereo unspecified), the “fractional inhibitory concentration index (FICI)” value in the experiment on Candida albicans [1] came out at 0.95; with Candida albicans [2], 1.11. The MIC50 in the experiment on Candida albicans [3] was 19.4 µg/mL (≈ 32.9 µM); in the experiment on Candida albicans [4] it was 1.83 µg/mL; with Candida albicans [5], greater than 200 µg/mL; in the experiment with Candida albicans [6] it was 190 µg/mL.
With `CC(=O)N1CCN(c2ccc(OCCN(Cc3ccc(C(F)(F)F)cc3)CC(O)(Cn3cncn3)c3ccc(F)cc3F)cc2)CC1` (stereo unspecified), the “fractional inhibitory concentration index (FICI)” value in the experiment with Candida albicans [1] worked out at 2; in the experiment on Candida albicans [2], 1.94. Moreover, the MIC50 was 1.83 µg/mL (≈ 2.78 µM) in the experiment on Candida albicans [3], 1.76 µg/mL with Candida albicans [4], greater than 200 µg/mL in the experiment with Candida albicans [5] and greater than 200 µg/mL in the experiment with Candida albicans [6].
For the molecule `CC(=O)N1CCN(c2ccc(OCCN(CC(O)(Cn3cncn3)c3ccc(F)cc3F)C(=O)c3ccc(Cl)cc3)cc2)CC1` (stereo unspecified), the entries for the “fractional inhibitory concentration index (FICI)” value in the experiment on Candida albicans [1] and with Candida albicans [2] were 0.73 and 0.64, respectively. The MIC50 is 6.79 µg/mL (≈ 10.6 µM) against Candida albicans [3], 0.91 µg/mL with Candida albicans [4], greater than 200 µg/mL with Candida albicans [5] and 147 µg/mL with Candida albicans [6].
As to `CC(=O)N1CCN(c2ccc(OCCN(CC(O)(Cn3cncn3)c3ccc(F)cc3F)C(=O)c3cc(F)c(F)c(F)c3F)cc2)CC1` (stereo unspecified), the “fractional inhibitory concentration index (FICI)” value with Candida albicans [1] stood at 2; with Candida albicans [2], 0.53. In addition, the MIC50 in the experiment with Candida albicans [3] was 0.31 µg/mL (≈ 0.458 µM); in the experiment with Candida albicans [4], 0.14 µg/mL; against Candida albicans [5] it was greater than 200 µg/mL; in the experiment with Candida albicans [6], greater than 200 µg/mL.
Take `CC(=O)N1CCN(c2ccc(OCCN(CC(O)(Cn3cncn3)c3ccc(F)cc3F)S(=O)(=O)c3ccc(OC(F)(F)F)cc3)cc2)CC1` (stereo unspecified): the “fractional inhibitory concentration index (FICI)” value in the experiment with Candida albicans [1] was 2; with Candida albicans [2], 0.45. Further, the MIC50 in the experiment with Candida albicans [3] was 0.84 µg/mL (≈ 1.16 µM); in the experiment with Candida albicans [4] it was 0.26 µg/mL; against Candida albicans [5], greater than 200 µg/mL; with Candida albicans [6] it was greater than 200 µg/mL.
With `CC(=O)N1CCN(c2ccc(OCCN(CC(O)(Cn3cncn3)c3ccc(F)cc3F)C(=O)c3ccccc3Cl)cc2)CC1` (stereo unspecified), the “fractional inhibitory concentration index (FICI)” value worked out at 2 with Candida albicans [1] and 1.61 with Candida albicans [2]. Also, the MIC50 with Candida albicans [3] was 11.3 µg/mL (≈ 17.8 µM); with Candida albicans [4] it was 2.5 µg/mL; in the experiment on Candida albicans [5] it was greater than 200 µg/mL; in the experiment with Candida albicans [6] it was greater than 200 µg/mL.
As for `CC(=O)N1CCN(c2ccc(OCCN(Cc3ccc(F)c(F)c3)CC(O)(Cn3cncn3)c3ccc(F)cc3F)cc2)CC1` (stereo unspecified), the “fractional inhibitory concentration index (FICI)” value in the experiment on Candida albicans [1] was 2; with Candida albicans [2], 4.61. The MIC50 in the experiment with Candida albicans [3] was 4.31 µg/mL (≈ 6.88 µM); in the experiment on Candida albicans [4] it was 5.85 µg/mL; in the experiment with Candida albicans [5], greater than 200 µg/mL; with Candida albicans [6], greater than 200 µg/mL.
Regarding `C#CCN(CCOc1ccc(N2CCN(C(C)=O)CC2)cc1)CC(O)(Cn1cncn1)c1ccc(F)cc1F` (stereo unspecified), the “fractional inhibitory concentration index (FICI)” value with Candida albicans [1] was 2; in the experiment on Candida albicans [2], 2.27. Moreover, the MIC50 in the experiment on Candida albicans [3] is 9.31 µg/mL (≈ 17.3 µM); in the experiment with Candida albicans [4], 3.42 µg/mL; against Candida albicans [5], greater than 200 µg/mL; in the experiment with Candida albicans [6], greater than 200 µg/mL.
Take `CC(=O)N1CCN(c2ccc(OCCN(CC(O)(Cn3cncn3)c3ccc(F)cc3F)C(=O)c3ccc(C(F)(F)F)cc3)cc2)CC1` (stereo unspecified): the “fractional inhibitory concentration index (FICI)” value in the experiment on Candida albicans [1] came to 2; in the experiment with Candida albicans [2], 2.03. Moreover, the MIC50 in the experiment with Candida albicans [3] is 17.9 µg/mL (≈ 26.6 µM); with Candida albicans [4] it was 3.32 µg/mL; in the experiment on Candida albicans [5], greater than 200 µg/mL; in the experiment with Candida albicans [6], greater than 200 µg/mL.
Consider `CC(=O)N1CCN(c2ccc(OCCN(CC(O)(Cn3cncn3)c3ccc(F)cc3F)S(=O)(=O)c3ccc(Cl)cc3)cc2)CC1` (stereo unspecified), for which the “fractional inhibitory concentration index (FICI)” value in the experiment with Candida albicans [1] amounted to 13.42; with Candida albicans [2], 2.61. In addition, the MIC50 was 8.49 µg/mL (≈ 12.6 µM) with Candida albicans [3], 3.88 µg/mL in the experiment with Candida albicans [4], 33.2 µg/mL (≈ 49.2 µM) in the experiment on Candida albicans [5] and greater than 200 µg/mL with Candida albicans [6].
In the case of `CC(=O)N1CCN(c2ccc(OCCN(Cc3ccc(Cl)cc3)CC(O)(Cn3cncn3)c3ccc(F)cc3F)cc2)CC1` (stereo unspecified), the “fractional inhibitory concentration index (FICI)” value was 2 in the experiment with Candida albicans [1] and 3.88 in the experiment on Candida albicans [2]. Besides, the MIC50 is 9.32 µg/mL (≈ 14.9 µM) against Candida albicans [3], 5.85 µg/mL with Candida albicans [4], greater than 200 µg/mL in the experiment with Candida albicans [5] and greater than 200 µg/mL in the experiment on Candida albicans [6].

As usually defined, the MIC50 is an inhibitory concentration at the 50% level, which refers to growth in some studies and to a panel of isolates in others.
